# Assay results: PubChem BioAssay (NCI)
#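 Cultured in 96-well plates, cells were exposed to test compound for 48 hours across five concentrations. TGI: total growth inhibition.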
# What was measured:
# Experiment in all cases: NCI-60 cell line screen, 48 h
# SNB-75 CNS = tested on: SNB-75 CNS
# A498 renal = tested on: A498 renal
# NCI-H522 lung = tested on: NCI-H522 lung
# DLD-1 colon = tested on: DLD-1 colon
# LOX IMVI melanoma = tested on: LOX IMVI melanoma
# M19-MEL melanoma = tested on: M19-MEL melanoma
# CCRF-CEM leukemia = tested on: CCRF-CEM leukemia
# COLO 205 colon = tested on: COLO 205 colon
# DMS 114 small cell lung = tested on: DMS 114 small cell lung
# A549 NSCLC = tested on: A549 NSCLC
# HOP-92 NSCLC = tested on: HOP-92 NSCLC
# HOP-62 NSCLC = tested on: HOP-62 NSCLC
# UACC-257 melanoma = tested on: UACC-257 melanoma
# ACHN renal = tested on: ACHN renal
# SK-MEL-28 melanoma = tested on: SK-MEL-28 melanoma
# HT29 colon = tested on: HT29 colon
# 786-0 renal = tested on: 786-0 renal
# SNB-78 CNS = tested on: SNB-78 CNS
# NCI-H460 lung = tested on: NCI-H460 lung
# RXF-631 renal = tested on: RXF-631 renal
# SK-MEL-2 melanoma = tested on: SK-MEL-2 melanoma
# SN12C renal = tested on: SN12C renal
# SK-OV-3 ovarian = tested on: SK-OV-3 ovarian
# HCT-15 colon = tested on: HCT-15 colon
# RXF 393 renal = tested on: RXF 393 renal
# SF-295 CNS = tested on: SF-295 CNS
# K-562 leukemia = tested on: K-562 leukemia
# MOLT-4 leukemia = tested on: MOLT-4 leukemia
# UO-31 renal = tested on: UO-31 renal
# SF-268 CNS = tested on: SF-268 CNS
# M14 melanoma = tested on: M14 melanoma
# SF-539 CNS = tested on: SF-539 CNS
# SW-620 colon = tested on: SW-620 colon
# NCI-H23 lung = tested on: NCI-H23 lung
# TK-10 renal = tested on: TK-10 renal
# SNB-19 CNS = tested on: SNB-19 CNS
# EKVX NSCLC = tested on: EKVX NSCLC
# KM20L2 colon = tested on: KM20L2 colon
# MALME-3M melanoma = tested on: MALME-3M melanoma
# HCT-116 colon = tested on: HCT-116 colon
# KM12 colon = tested on: KM12 colon
# IGROV1 ovarian = tested on: IGROV1 ovarian
# RPMI-8226 leukemia = tested on: RPMI-8226 leukemia
# OVCAR-8 ovarian = tested on: OVCAR-8 ovarian
# HL-60(TB) leukemia = tested on: HL-60(TB) leukemia
# SK-MEL-5 melanoma = tested on: SK-MEL-5 melanoma
# OVCAR-4 ovarian = tested on: OVCAR-4 ovarian
# HOP-18 NSCLC = tested on: HOP-18 NSCLC
# LXFL 529 NSCLC = tested on: LXFL 529 NSCLC
# U251 CNS = tested on: U251 CNS
# DMS 273 small cell lung = tested on: DMS 273 small cell lung
# OVCAR-3 ovarian = tested on: OVCAR-3 ovarian
# OVCAR-5 ovarian = tested on: OVCAR-5 ovarian
# UACC-62 melanoma = tested on: UACC-62 melanoma
# XF 498 CNS = tested on: XF 498 CNS
# CAKI-1 renal = tested on: CAKI-1 renal
# HCC-2998 colon = tested on: HCC-2998 colon
compound,measurement,setting,value
C#CCN(C)C(=O)N(CC#C)N=O,TGI,SNB-75 CNS,> 100 µM
same,TGI,A498 renal,> 100 µM
same,TGI,NCI-H522 lung,> 100 µM
same,TGI,DLD-1 colon,> 100 µM
same,TGI,LOX IMVI melanoma,> 100 µM
same,TGI,M19-MEL melanoma,> 100 µM
same,TGI,CCRF-CEM leukemia,> 100 µM
same,TGI,COLO 205 colon,> 100 µM
same,TGI,DMS 114 small cell lung,> 100 µM
same,TGI,A549 NSCLC,> 100 µM
same,TGI,HOP-92 NSCLC,> 100 µM
same,TGI,HOP-62 NSCLC,> 100 µM
same,TGI,UACC-257 melanoma,> 100 µM
same,TGI,ACHN renal,> 100 µM
same,TGI,SK-MEL-28 melanoma,> 100 µM
same,TGI,HT29 colon,> 100 µM
same,TGI,786-0 renal,> 100 µM
same,TGI,SNB-78 CNS,> 100 µM
same,TGI,NCI-H460 lung,> 100 µM
same,TGI,RXF-631 renal,> 100 µM
same,TGI,SK-MEL-2 melanoma,> 100 µM
same,TGI,SN12C renal,> 100 µM
same,TGI,SK-OV-3 ovarian,> 100 µM
same,TGI,HCT-15 colon,> 100 µM
same,TGI,RXF 393 renal,> 100 µM
same,TGI,SF-295 CNS,> 100 µM
same,TGI,K-562 leukemia,> 100 µM
same,TGI,MOLT-4 leukemia,> 100 µM
same,TGI,UO-31 renal,> 100 µM
same,TGI,SF-268 CNS,> 100 µM
same,TGI,M14 melanoma,> 100 µM
same,TGI,SF-539 CNS,> 100 µM
same,TGI,SW-620 colon,> 100 µM
same,TGI,NCI-H23 lung,> 100 µM
same,TGI,TK-10 renal,> 100 µM
same,TGI,SNB-19 CNS,> 100 µM
same,TGI,EKVX NSCLC,> 100 µM
same,TGI,KM20L2 colon,> 100 µM
same,TGI,MALME-3M melanoma,> 100 µM
same,TGI,HCT-116 colon,> 100 µM
same,TGI,KM12 colon,> 100 µM
same,TGI,IGROV1 ovarian,> 100 µM
same,TGI,RPMI-8226 leukemia,> 100 µM
same,TGI,OVCAR-8 ovarian,> 100 µM
same,TGI,HL-60(TB) leukemia,> 100 µM
same,TGI,SK-MEL-5 melanoma,> 100 µM
same,TGI,OVCAR-4 ovarian,> 100 µM
same,TGI,HOP-18 NSCLC,> 100 µM
same,TGI,LXFL 529 NSCLC,> 100 µM
same,TGI,U251 CNS,> 100 µM
same,TGI,DMS 273 small cell lung,> 100 µM
same,TGI,OVCAR-3 ovarian,> 100 µM
same,TGI,OVCAR-5 ovarian,> 100 µM
same,TGI,UACC-62 melanoma,> 100 µM
Nc1ccc(C(=O)N/C(=C\c2cccc([N+](=O)[O-])c2)c2nc3c4c(ccc3[nH]2)C(=O)c2ccccc2C4=O)cc1,TGI,SNB-75 CNS,17.8 µM
same,TGI,A498 renal,57.7 µM
same,TGI,NCI-H522 lung,71.2 µM
same,TGI,DLD-1 colon,> 100 µM
same,TGI,LOX IMVI melanoma,> 100 µM
same,TGI,M19-MEL melanoma,> 100 µM
same,TGI,CCRF-CEM leukemia,> 100 µM
same,TGI,COLO 205 colon,> 100 µM
same,TGI,DMS 114 small cell lung,> 100 µM
same,TGI,A549 NSCLC,> 100 µM
same,TGI,HOP-92 NSCLC,93.4 µM
same,TGI,HOP-62 NSCLC,> 100 µM
same,TGI,UACC-257 melanoma,> 100 µM
same,TGI,SK-MEL-28 melanoma,> 100 µM
same,TGI,HT29 colon,> 100 µM
same,TGI,786-0 renal,> 100 µM
same,TGI,SNB-78 CNS,> 100 µM
same,TGI,NCI-H460 lung,> 100 µM
same,TGI,RXF-631 renal,> 100 µM
same,TGI,SK-MEL-2 melanoma,> 100 µM
same,TGI,SN12C renal,> 100 µM
same,TGI,SK-OV-3 ovarian,> 100 µM
same,TGI,HCT-15 colon,> 100 µM
same,TGI,RXF 393 renal,57.7 µM
same,TGI,SF-295 CNS,> 100 µM
same,TGI,K-562 leukemia,> 100 µM
same,TGI,MOLT-4 leukemia,> 100 µM
same,TGI,UO-31 renal,7.64 µM
same,TGI,SF-268 CNS,> 100 µM
same,TGI,M14 melanoma,> 100 µM
same,TGI,SF-539 CNS,> 100 µM
same,TGI,SW-620 colon,> 100 µM
same,TGI,XF 498 CNS,> 100 µM
same,TGI,NCI-H23 lung,> 100 µM
same,TGI,TK-10 renal,77 µM
same,TGI,SNB-19 CNS,> 100 µM
same,TGI,EKVX NSCLC,> 100 µM
same,TGI,KM20L2 colon,> 100 µM
same,TGI,MALME-3M melanoma,> 100 µM
same,TGI,HCT-116 colon,> 100 µM
same,TGI,CAKI-1 renal,> 100 µM
same,TGI,IGROV1 ovarian,> 100 µM
same,TGI,RPMI-8226 leukemia,> 100 µM
same,TGI,OVCAR-8 ovarian,> 100 µM
same,TGI,SK-MEL-5 melanoma,> 100 µM
same,TGI,OVCAR-4 ovarian,43.4 µM
same,TGI,HOP-18 NSCLC,> 100 µM
same,TGI,LXFL 529 NSCLC,> 100 µM
same,TGI,U251 CNS,> 100 µM
same,TGI,HCC-2998 colon,> 100 µM
same,TGI,DMS 273 small cell lung,> 100 µM
same,TGI,OVCAR-3 ovarian,> 100 µM
same,TGI,OVCAR-5 ovarian,> 100 µM
same,TGI,UACC-62 melanoma,> 100 µM
